Data published in the OligoGym collection.
Where “and” joins values, the source holds several entries; their conditions need not be identical. Identical values can stand only once. After the bases stand the sugars from the 5' end (letter, count) and the backbone: PS all phosphorothioate, else s phosphorothioate and o phosphodiester by linkage. Methylation of C is not given here. e = 2'-O-(2-methoxyethyl) (MOE); l = locked nucleic acid (LNA); k = constrained ethyl (cEt); d = 2'-deoxy (DNA)

Columns and labels:
YAP1 = details: ASO, SNU-449, 2 µM
HTRA1 = details: ASO, U251, 5 µM

ATTAGAGTATGTGGCA (sugars kkdddddddddkekek, PS)
target mRNA inhibition (YAP1): 57%

ATTCAGATTTAGGATG (sugars kkdddddddddkdkdk, PS)
target mRNA inhibition (YAP1): -2%

ATTTAGGATGCATGGT (sugars kekdddddddddeekk, PS)
target mRNA inhibition (YAP1): 70%

CTAAGTAAGGTTTCCC (sugars k3 d10 k3, PS)
target mRNA inhibition (YAP1): 83%

GTAAGAAGTACTTTAATAG (sugars l4 d11 l4, PS)
target mRNA inhibition (HTRA1): 80%

GTATCGACTGCATTAG (sugars l3 d11 l2, PS)
target mRNA inhibition (HTRA1): 99.6% and 97%

GTATCGACTGCATTAGTTGG (sugars l1 d17 l2, PS)
target mRNA inhibition (HTRA1): 41%

TATCGACTGCATTAGTTGG (sugars l3 d14 l2, PS)
target mRNA inhibition (HTRA1): 57%

TATCTACGCATTGTAT (sugars l4 d8 l4, PS)
target mRNA inhibition (HTRA1): 88%

TCTACGCATTGTATCG (sugars l3 d10 l3, PS)
target mRNA inhibition (HTRA1): 97%

TCTACGCATTGTATCGAC (sugars l4 d12 l2, PS)
target mRNA inhibition (HTRA1): 74%

TCTATCTACGCATTGTATCG (sugars l2 d16 l2, PS)
target mRNA inhibition (HTRA1): 58%

TGACTTGGAGAAAAGCACAA (sugars l2 d16 l2, PS)
target mRNA inhibition (HTRA1): 2%

TGTATCGACTGCATTAGTT (sugars l3 d14 l2, PS)
target mRNA inhibition (HTRA1): 74%

TGTATCGACTGCATTAGTTG (sugars l2 d16 l2, PS)
target mRNA inhibition (HTRA1): 49%

TTCTATCTACGCATTGTATC (sugars l3 d15 l2, PS)
target mRNA inhibition (HTRA1): 64%

TTCTTCTATCTACGCA (sugars l3 d10 l3, PS)
target mRNA inhibition (HTRA1): 92%

TTGTATCGACTGCATT (sugars l3 d11 l2, PS)
target mRNA inhibition (HTRA1): 99.7% and 95%
